# Measurements from patent publication US20050164993A1, “Methods of treating allergic reactions” (priority 2002, published 2005).
# Test system: not given
# Assay: not given
# Details: based on steady-state pharmacokinetics; cited from earlier work
row,SMILES,plasma antibiotic threshold level [µg/mL]
1,"C[C@H]1c2cccc(O)c2C(=O)C2=C(O)[C@]3(O)C(=O)C(C(N)=O)=C(O)[C@@H](N(C)C)[C@@H]3[C@@H](O)[C@@H]21 [Doxycycline, 6α-deoxy-5-hydroxytetracycline, reference compound]",1.0
2,"CN(C)c1ccc(O)c2c1C[C@H]1C[C@H]3[C@H](N(C)C)C(O)=C(C(N)=O)C(=O)[C@@]3(O)C(O)=C1C2=O [Minocycline, 7-dimethylaminotetracycline]",0.8
3,"CN(C)[C@@H]1C(=O)C(C(N)=O)=C(O)[C@@]2(O)C(=O)C3=C(O)c4c(O)cccc4[C@@](C)(O)[C@H]3C[C@@H]12 [Tetracycline, reference compound]",0.5

# Test system: BALB/c 3T3 (CCL-163) cells
# Assay: 3T3 Neutral Red uptake phototoxicity assay (with/without UVA)
# Details: not given
# Experimental: Streptomycin sulfate ([…]) and penicillin (100 IU/ml) were added to the medium after the cells were treated with test article in 96-well plates.
# Serial dilutions of the tetracycline derivatives were prepared in DMSO at concentrations 100× to final testing concentration. The COL dilutions in DMSO were then diluted in Hanks' Balanced Salt Solution (HBSS) for application to the cells. The final DMSO concentration was 1% in treated and control cultures. A dose range finding assay is conducted with eight serial dilutions covering a range of 100-0.03 μg/ml in half log steps. Definitive assays are conducted with 6-8 serial dilutions prepared in quarter log steps, centered on the expected 50% toxicity point as determined in the dose range finding assay. One hundred 100 μg/ml was the highest dose recommended to prevent false negative results from UV absorption by the dosing solutions. One dose range finding and at least two definitive trials were performed on each tetracycline derivative and control compound.
# Controls: Each assay included both negative (solvent) and positive controls. Twelve wells of negative control cultures were used on each 96-well plate. Chlorpromazine (Sigma Chemicals) was used as the positive control and was prepared and dosed like the test tetracycline derivatives.
# Solar Simulator: A Dermalight SOL 3 solar simulator, equipped with a UVA H1 filter (320-400 nm), was adjusted to the appropriate height. Measurement of energy through the lid of a 96-well microtiter plate was carried out using a calibrated UV radiometer UVA sensor. Simulator height was adjusted to deliver 1.7±0.1 mW/cm^2 of UVA energy (resulting dose was 1 J/cm^2 per 10 minutes of exposure).
# Phototoxicity Assay: Duplicate plates were prepared for each test material by seeding 10^4 3T3 cells per well in complete medium 24 hours before treatment. Prior to treatment, the medium was removed, and the cells washed once with 125 μl of prewarmed HBSS. Fifty μl of prewarmed HBSS were added to each well. Fifty μl of each test article dilution were added to the appropriate wells and the plates returned to the incubator for approximately one hour. Six wells were treated with each dose of test or control article on each plate. Following the 1 hr incubation, the plates designated for the photo irradiation were exposed (with the lid on) to 1.7±0.1 mW/cm^2 UVA light for 50±2 minutes at room temperature resulting in an irradiation dose of 5 J/cm^2. Duplicate plates, designated for the measurement of cytotoxicity without light, were kept in the dark room temperature for 50±2 minutes. After the 50 minute exposure period (with or without light) the test article dilutions were decanted from the plates and the cells washed once with 125 μl of HBSS. One hundred μl of medium were added to all wells and the cells incubated as above for 24±1 hours.
# After 24 hours of incubation, the medium was decanted and 100 μl of the Neutral Red containing medium were added to each well. The plates were returned to the incubator and incubated for approximately 3 hours. After 3 hours, the medium was decanted and each well rinsed once with 250 μl of HBSS. The plates were blotted to remove the HBSS and 100 μl of Neutral Red Solvent were added to each well. After a minimum of 20 minutes of incubation at room temperature (with shaking), the absorbance at 550 nm was measured with a plate reader, using the mean of the blank outer wells as the reference. Relative survival was obtained by comparing the amount of neutral red taken by each well treated with the test article and positive control to the neutral red taken up by the average of the negative wells (12 wells) on the same plate. The amount of neutral red taken up by the negative control wells is considered to be 100% survival.
SMILES,"PIF 1 (photoirritancy factor, earlier software)","PIF 2 (photoirritancy factor, OECD Draft Guideline 432)"
"NC(=O)C1=C(O)C[C@@H]2C[C@@H]3Cc4cccc(O)c4C(=O)C3=C(O)[C@]2(O)C1=O [COL 3, 6-demethyl-6-deoxy-4-dedimethylaminotetracycline]",647,84.72
"CC1c2cccc(O)c2C(=O)C2=C(O)C3(O)C(=O)C(C(N)=O)=C(O)CC3C(O)C21 (stereo not drawn) [COL 8, 4-dedimethylaminodoxycycline]",165,82.61
"CN(C)c1ccc(O)c2c1CC1CC3CC(O)=C(C(N)=O)C(=O)C3(O)C(O)=C1C2=O (stereo not drawn) [COL 10, 4-dedimethylaminominocycline]",–,2.04
"NC(=O)C1=C(O)CC2CC3Cc4c([N+](=O)[O-])ccc(O)c4C(=O)C3=C(O)C2(O)C1=O (stereo not drawn) [COL 302, 7-nitro-6-demethyl-6-deoxy-4-dedimethylaminotetracycline]",23.16,23.32
"NC(=O)C1=C(O)CC2CC3Cc4ccc([N+](=O)[O-])c(O)c4C(=O)C3=C(O)C2(O)C1=O (stereo not drawn) [COL 303, 9-nitro-6-demethyl-6-deoxy-4-dedimethylaminotetracycline]",5.27,13.82
"CN(C)c1ccc2c(c1O)C(=O)C1=C(O)C3(O)C(=O)C(C(N)=O)=C(O)CC3CC1C2 (stereo not drawn) [COL 306, 9-dimethylamino-6-demethyl-6-deoxy-4-dedimethylaminotetracycline]",1.64,1.56
"NC(=O)C1=C(O)CC2CC3Cc4c(N)ccc(O)c4C(=O)C3=C(O)C2(O)C1=O (stereo not drawn) [COL 307, 7-amino-6-demethyl-6-deoxy-4-dedimethylaminotetracycline]",1.17,–
"NC(=O)C1=C(O)CC2CC3Cc4ccc(N)c(O)c4C(=O)C3=C(O)C2(O)C1=O (stereo not drawn) [COL 308, 9-amino-6-demethyl-6-deoxy-4-dedimethylaminotetracycline]",1.0,–
"CN(C)CC(=O)Nc1ccc2c(c1O)C(=O)C1=C(O)C3(O)C(=O)C(C(N)=O)=C(O)CC3CC1C2 (stereo not drawn) [COL 309, 9-dimethylaminoacetamido-6-demethyl-6-deoxy-4-dedimethylaminotetracycline]",5.17,12.87
"CCCCCCCCCCCCCCCC(=O)Nc1ccc2c(c1O)C(=O)C1=C(O)C3(O)C(=O)C(C(N)=O)=C(O)CC3CC1C2 (stereo not drawn) [COL 311, 9-palmitamide-6-demethyl-6-deoxy-4-dedimethylaminotetracycline]",1.0,–
"O=C(NCN1CCCC1)C1=C(O)CC2CC3Cc4cccc(O)c4C(=O)C3=C(O)C2(O)C1=O (stereo not drawn) [COL 312, 2-CONHCH2-pyrrolidin-1-yl-6-demethyl-6-deoxy-4-dedimethylaminotetracycline]",62.67,75.11
"O=C(NCN1CCCCC1)C1=C(O)CC2CC3Cc4cccc(O)c4C(=O)C3=C(O)C2(O)C1=O (stereo not drawn) [COL 313, 2-CONHCH2-piperidin-1-yl-6-demethyl-6-deoxy-4-dedimethylaminotetracycline]",80.27,58.22
"O=C(NCN1CCOCC1)C1=C(O)CC2CC3Cc4cccc(O)c4C(=O)C3=C(O)C2(O)C1=O (stereo not drawn) [COL 314, 2-CONHCH2-morpholin-1-yl-6-demethyl-6-deoxy-4-dedimethylaminotetracycline]",41.1,89.48
"O=C(NCN1CCNCC1)C1=C(O)CC2CC3Cc4cccc(O)c4C(=O)C3=C(O)C2(O)C1=O (stereo not drawn) [COL 315, 2-CONHCH2-piperazin-1-yl-6-demethyl-6-deoxy-4-dedimethylaminotetracycline]",15.8,35.30
"CC(=O)Nc1ccc2c(c1O)C(=O)C1=C(O)C3(O)C(=O)C(C(N)=O)=C(O)CC3C(O)C1C2C (stereo not drawn) [COL 801, 9-acetamido-4-dedimethylaminodoxycycline]",1.0,–
"CC1c2ccc(NC(=O)CN(C)C)c(O)c2C(=O)C2=C(O)C3(O)C(=O)C(C(N)=O)=C(O)CC3C(O)C21 (stereo not drawn) [COL 802, 9-dimethylaminoacetamido-4-dedimethylaminodoxycycline]",1.0,–
"CC1c2ccc([N+](=O)[O-])c(O)c2C(=O)C2=C(O)C3(O)C(=O)C(C(N)=O)=C(O)CC3C(O)C21 (stereo not drawn) [COL 804, 9-nitro-4-dedimethylaminodoxycycline]",1.0,–
"CC1c2ccc(N)c(O)c2C(=O)C2=C(O)C3(O)C(=O)C(C(N)=O)=C(O)CC3C(O)C21 (stereo not drawn) [COL 805, 9-amino-4-dedimethylaminodoxycycline]",1.0,–
"CC1c2cccc(O)c2C(=O)C2=C(O)C3(O)C(=O)C(C(=O)NCN4CCCC4)=C(O)CC3C(O)C21 (stereo not drawn) [COL 807, 2-CONHCH2-pyrrolidin-1-yl-4-dedimethylaminodoxycycline]",40.4,–
"CC1c2cccc(O)c2C(=O)C2=C(O)C3(O)C(=O)C(C(=O)NCN4CCCCC4)=C(O)CC3C(O)C21 (stereo not drawn) [COL 808, 2-CONHCH2-piperidin-1-yl-4-dedimethylaminodoxycycline]",46.45,–
"CN(C)c1cc([N+](=O)[O-])c(O)c2c1CC1CC3CC(O)=C(C(N)=O)C(=O)C3(O)C(O)=C1C2=O (stereo not drawn) [COL 1002, 9-nitro-4-dedimethylaminominocycline]",–,1.35

# Same assay, conditions: 3T3 cells, 5 J/cm^2 UVA vs dark; <0.1 nonphototoxin, 0.1 to <0.15 probable, >=0.15 clear phototoxin
row,SMILES,MPE (mean photo effect)
1,"CN(C)[C@@H]1C(=O)C(C(N)=O)=C(O)[C@@]2(O)C(=O)C3=C(O)c4c(O)cccc4[C@@](C)(O)[C@H]3C[C@@H]12 [Tetracycline, reference compound]",0.340

# Same assay, conditions: IC50(-UVA)/IC50(+UVA), 3T3 cells; >5 indicative of phototoxic potential
row,SMILES,"PIF 1 (photoirritancy factor, earlier software)"
1,"CN(C)[C@@H]1C(=O)C(C(N)=O)=C(O)[C@@]2(O)C(=O)C3=C(O)c4c(O)cccc4[C@@](C)(O)[C@H]3C[C@@H]12 [Tetracycline, reference compound]",5.38

# Same assay, conditions: mouse
SMILES,"PIF 2 (photoirritancy factor, OECD Draft Guideline 432)","PIF 1 (photoirritancy factor, earlier software)"
"CN(C)CCCN1c2ccccc2Sc2ccc(Cl)cc21 [Chlorpromazine, reference compound]",40.38,–
"C[C@H]1c2cccc(O)c2C(=O)C2=C(O)[C@]3(O)C(=O)C(C(N)=O)=C(O)[C@@H](N(C)C)[C@@H]3[C@@H](O)[C@@H]21 [Doxycycline, 6α-deoxy-5-hydroxytetracycline, reference compound]",26.71,23.37
